Measurements: paper PMC10126150 (2023)

Legend:
[1] = tested on: atp-7 ADS construct (DNA, aptamer) CACCTGGGGGAGTATTGCGGAGGAAGGTTTCTGTCTCTTATACACATCTGACGCTGCCGACGA/TCGTCGGCAGCGTCAGATGTGTATAAGAGACAGTTTTTTTTTTTTTTTTTTTTTTTTTCCGGGGGCTATC; experiment: Cy3/quencher fluorescence plate reader, two-site fit; conditions: 120 mM Na+, 5 mM K+, 1 mM Mg2+, 1 mM Ca2+; 20 mM Tris-HCl, 0.01% Tween-20, 25 °C; apparent; lower end of range 12–157, atp-7 stated highest affinity
[2] = tested on: NNGmin_scr with glu-1 (DNA, other, boronic acid-modified U (Z) at 1,4,15,18,19,22,26,29 of strand 1) TGGTGCGCGCAGGCTCCTTAATGCATAATTTTCTGTCTCTTATACACATCTGACGCTGCCGACG/TCGTCGGCAGCGTCAGATGTGTATAAGAGACAGTTTTTTTTTTTTTTTTTTTTTTTTTTAGGGCAGGCTC; experiment: Cy3/quencher fluorescence plate reader; conditions: 120 mM Na+, 5 mM K+, 1 mM Mg2+, 1 mM Ca2+; 20 mM Tris-HCl, 25 °C; 20% signal change against 45-50% for glu1-4
[3] = tested on: NNGmin_scr with glu-2 (DNA, other, boronic acid-modified U (Z) at 1,4,15,18,19,22,26,29 of strand 1) TGGTGCGCGCAGGCTCCTTAATGCATAATTTTCTGTCTCTTATACACATCTGACGCTGCCGACG/TCGTCGGCAGCGTCAGATGTGTATAAGAGACAGTTTTTTTTTTTTTTTTTTTTTTTTTCAGGACAGGCTC; experiment: Cy3/quencher fluorescence plate reader; conditions: 120 mM Na+, 5 mM K+, 1 mM Mg2+, 1 mM Ca2+; 20 mM Tris-HCl, 25 °C; 20% signal change against 45-50% for glu1-4
[4] = tested on: NNGmin_scr with glu-3 (DNA, other, boronic acid-modified U (Z) at 1,4,15,18,19,22,26,29 of strand 1) TGGTGCGCGCAGGCTCCTTAATGCATAATTTTCTGTCTCTTATACACATCTGACGCTGCCGACG/TCGTCGGCAGCGTCAGATGTGTATAAGAGACAGTTTTTTTTTTTTTTTTTTTTTTTTTTACCAGGAGCTC; experiment: Cy3/quencher fluorescence plate reader; conditions: 120 mM Na+, 5 mM K+, 1 mM Mg2+, 1 mM Ca2+; 20 mM Tris-HCl, 25 °C; 20% signal change against 45-50% for glu1-4
[5] = tested on: NNGmin_scr with glu-4 (DNA, other, boronic acid-modified U (Z) at 1,4,15,18,19,22,26,29 of strand 1) TGGTGCGCGCAGGCTCCTTAATGCATAATTTTCTGTCTCTTATACACATCTGACGCTGCCGACG/TCGTCGGCAGCGTCAGATGTGTATAAGAGACAGTTTTTTTTTTTTTTTTTTTTTTTTTACCAGGAGCTTC; experiment: Cy3/quencher fluorescence plate reader; conditions: 120 mM Na+, 5 mM K+, 1 mM Mg2+, 1 mM Ca2+; 20 mM Tris-HCl, 25 °C; 20% signal change against 45-50% for glu1-4
[6] = tested on: glu-1 ADS construct (DNA, aptamer, boronic acid-modified U (Z, T in the source) at 5,7,8,12,15,19,24,26 of strand 1 (MS of Bio-NNGmin: seven of eight coupled)) CCCGTGTTAGATAGTAAGTGCAATCTCGGCTTTCTGTCTCTTATACACATCTGACGCTGCCGACGA/TCGTCGGCAGCGTCAGATGTGTATAAGAGACAGTTTTTTTTTTTTTTTTTTTTTTTTTTAGGGCAGGCTC; experiment: Cy3/quencher fluorescence plate reader, single-site fit; conditions: 120 mM Na+, 5 mM K+, 1 mM Mg2+, 1 mM Ca2+; 20 mM Tris-HCl, 0.01% Tween-20, 25 °C; apparent; order of ~0.3 for all four constructs
[7] = tested on: glu-2 ADS construct (DNA, aptamer, boronic acid-modified U (Z, T in the source) at 5,7,8,12,15,19,24,26 of strand 1 (MS of Bio-NNGmin: seven of eight coupled)) CCCGTGTTAGATAGTAAGTGCAATCTCGGCTTTCTGTCTCTTATACACATCTGACGCTGCCGACGA/TCGTCGGCAGCGTCAGATGTGTATAAGAGACAGTTTTTTTTTTTTTTTTTTTTTTTTTCAGGACAGGCTC; experiment: as above; conditions: 120 mM Na+, 5 mM K+, 1 mM Mg2+, 1 mM Ca2+; 20 mM Tris-HCl, 0.01% Tween-20, 25 °C; apparent; order of ~0.3 for all four constructs
[8] = tested on: glu-3 ADS construct (DNA, aptamer, boronic acid-modified U (Z, T in the source) at 5,7,8,12,15,19,24,26 of strand 1 (MS of Bio-NNGmin: seven of eight coupled)) CCCGTGTTAGATAGTAAGTGCAATCTCGGCTTTCTGTCTCTTATACACATCTGACGCTGCCGACGA/TCGTCGGCAGCGTCAGATGTGTATAAGAGACAGTTTTTTTTTTTTTTTTTTTTTTTTTTACCAGGAGCTC; experiment: as above; conditions: 120 mM Na+, 5 mM K+, 1 mM Mg2+, 1 mM Ca2+; 20 mM Tris-HCl, 0.01% Tween-20, 25 °C; apparent; order of ~0.3 for all four constructs
[9] = tested on: glu-4 ADS construct (DNA, aptamer, boronic acid-modified U (Z, T in the source) at 5,7,8,12,15,19,24,26 of strand 1 (MS of Bio-NNGmin: seven of eight coupled)) CCCGTGTTAGATAGTAAGTGCAATCTCGGCTTTCTGTCTCTTATACACATCTGACGCTGCCGACGA/TCGTCGGCAGCGTCAGATGTGTATAAGAGACAGTTTTTTTTTTTTTTTTTTTTTTTTTACCAGGAGCTTC; experiment: as above; conditions: 120 mM Na+, 5 mM K+, 1 mM Mg2+, 1 mM Ca2+; 20 mM Tris-HCl, 0.01% Tween-20, 25 °C; apparent; order of ~0.3 for all four constructs

`Nc1ncnc2c1ncn2[C@@H]1O[C@H](COP(=O)(O)OP(=O)(O)OP(=O)(O)O)[C@@H](O)[C@H]1O` gave a KD [1] of 12 µM.
With `OC[C@H]1OC(O)[C@H](O)[C@@H](O)[C@@H]1O` (stereo partly drawn) the binding [2] was “weak”, the binding [3] was “weak” and the binding [4] was “weak”. The binding [5] was “weak”, the KDeff [6] was ~ 0.3 mM and the KDeff [7] was ~ 0.3 mM. The KDeff [8] was ~ 0.3 mM and the KDeff [9] was ~ 0.3 mM.
